Measurements: the supplement of paper PMC11061612

Key:
Assay in all cases: combination Emax (second highest fraction inhibited in the dose matrix, 72 h); higher = more inhibition; extreme values may be limits of the assay
[1] = system: SAT (Head and Neck Carcinoma)
Method in brief: (§1)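 Bliss excess equals the observed combination effect minus the expected value EA + EB − EA·EB, where EA and EB are the effects of each agent alone. Combination Emax is the second-highest inhibition within the matrix. Inhibition was scaled from CellTiter-Glo 2.0 luminescence, with 0 set by vehicle wells and 1 by blank wells, after 72 hours of two-drug dosing of cells plated in 1536-well plates.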

[2] = system: C-33-A (Cervical Carcinoma)
Method in brief: as §1

[3] = system: SCC-4 (Oral Cavity Carcinoma)
Method in brief: as §1

[4] = system: KP-4 (Pancreatic Carcinoma)
Method in brief: as §1

[5] = system: MOLP-8 (Plasma Cell Myeloma)
Method in brief: as §1

[6] = system: COR-L88 (Small Cell Lung Carcinoma)
Method in brief: as §1

AM-38 (Glioblastoma) = system: AM-38 (Glioblastoma)
Method in brief: as §1

[7] = system: HT-1080 (Other Solid Carcinomas)
Method in brief: as §1

NCI-H226 (Mesothelioma) = system: NCI-H226 (Mesothelioma)
Method in brief: as §1

[8] = system: BHT-101 (Thyroid Gland Carcinoma)
Method in brief: as §1

[9] = system: LS-1034 (Colorectal Carcinoma)
Method in brief: as §1

[10] = system: OVCAR-3 (Ovarian Carcinoma)
Method in brief: as §1

SK-N-SH (Neuroblastoma) = system: SK-N-SH (Neuroblastoma)
Method in brief: as §1

[11] = system: LCLC-103H (Non-Small Cell Lung Carcinoma)
Method in brief: as §1

[12] = system: NCI-H3118 (Head and Neck Carcinoma)
Method in brief: as §1

UACC-257 (Melanoma) = system: UACC-257 (Melanoma)
Method in brief: as §1

[13] = system: BxPC-3 (Pancreatic Carcinoma)
Method in brief: as §1

[14] = system: SNU-C2B (Colorectal Carcinoma)
Method in brief: as §1

[15] = system: IA-LM (Non-Small Cell Lung Carcinoma)
Method in brief: as §1

[16] = system: CPC-N (Small Cell Lung Carcinoma)
Method in brief: as §1

| SMILES | combination Emax [1] | combination Emax [2] | combination Emax [3] | combination Emax [4] | combination Emax [5] | combination Emax [6] | combination Emax (AM-38 (Glioblastoma)) | combination Emax [7] | combination Emax (NCI-H226 (Mesothelioma)) | combination Emax [8] | combination Emax [9] | combination Emax [10] | combination Emax (SK-N-SH (Neuroblastoma)) | combination Emax [11] | combination Emax [12] | combination Emax (UACC-257 (Melanoma)) | combination Emax [13] | combination Emax [14] | combination Emax [15] | combination Emax [16] |
| --- | --- | --- | --- | --- | --- | --- | --- | --- | --- | --- | --- | --- | --- | --- | --- | --- | --- | --- | --- | --- |
| C[C@@H]1COCCN1c1cc(C2([S@](C)(=N)=O)CC2)nc(-c2ccnc3[nH]ccc23)n1 [AZD6738] + O=C(c1cc(Cc2n[nH]c(=O)c3ccccc23)ccc1F)N1CCN(C(=O)C2CC2)CC1 [Olaparib] (first compound max 10 µM, 7x7, partner max 10 µM) | 0.371 | 0.89 | 0.729 | 0.706 | 0.794 | 0.342 | 0.747 | 0.45 | 0.207 | 0.663 | 0.56 | 0.555 | 0.929 | 0.504 | 0.64 | 0.142 | 0.485 | 0.69 | 0.399 | 0.912 |
| CN(CCO)CC[C@H](CSc1ccccc1)Nc1ccc(S(=O)(=O)NC(=O)c2ccc(N3CCC([C@@H](O)c4ccccc4-c4ccc(Cl)cc4)CC3)cc2)cc1S(=O)(=O)C(F)(F)F [AZD4320] + CCN(CCO)CCCOc1ccc2c(Nc3cc(CC(=O)Nc4cccc(F)c4)[nH]n3)ncnc2c1 [AZD2811] (first compound max 1 µM, 7x7, partner max 1 µM) | 0.375 | 0.151 | 0.861 | 0.368 | 0.418 | 0.974 | 0.932 | 0.594 | 0.49 | 0.279 | 0.251 | 0.234 | 0.761 | 0.344 | 0.333 | 0.161 | 0.236 | 0.168 | 0.505 | 0.971 |
| CC(=O)c1c(C)c2cnc(Nc3ccc(N4CCNCC4)cn3)nc2n(C2CCCC2)c1=O [Palbociclib] + Cn1cnc2c(F)c(Nc3ccc(Br)cc3Cl)c(C(=O)NOCCO)cc21 [Selumetinib] (first compound max 10 µM, 7x7, partner max 10 µM) | 0.549 | 0.457 | 0.377 | 0.509 | 0.553 | 0.223 | 0.568 | 0.361 | 0.232 | 0.813 | 0.817 | 0.185 | 0.371 | 0.248 | 0.603 | 0.647 | 0.414 | 0.303 | 0.281 | 0.14 |
| CCN(CCO)CCCOc1ccc2c(Nc3cc(CC(=O)Nc4cccc(F)c4)[nH]n3)ncnc2c1 [AZD2811] + C=CCn1c(=O)c2cnc(Nc3ccc(N4CCN(C)CC4)cc3)nc2n1-c1cccc(C(C)(C)O)n1 [AZD1775] (first compound max 1 µM, partner max 1 µM) | 0.41 | 0.882 | 0.454 | 0.651 | 0.76 | 0.64 | 0.377 | 0.331 | 0.185 | 0.318 | 0.257 | 0.262 | 0.787 | 0.546 | 0.807 | 0.154 | 0.449 | 0.554 | 0.166 | 0.961 |
| Cc1c2c(nn1C)CSCc1cc(n(C)n1)CSc1cc(c3ccccc3c1)OCCCc1c(C(=O)O)n(C)c3c-2c(Cl)ccc13 [AZD5991] + C=CCn1c(=O)c2cnc(Nc3ccc(N4CCN(C)CC4)cc3)nc2n1-c1cccc(C(C)(C)O)n1 [AZD1775] (first compound max 1 µM, partner max 1 µM) | 0.829 | 0.945 | 0.715 | 0.659 | 1 | 0.744 | 0.53 | 0.402 | 0.269 | 0.732 | 0.481 | 0.835 | 0.86 | 0.523 | 0.9 | 0.294 | 0.616 | 0.497 | 0.265 | 0.967 |
| Cc1c2c(nn1C)CSCc1cc(n(C)n1)CSc1cc(c3ccccc3c1)OCCCc1c(C(=O)O)n(C)c3c-2c(Cl)ccc13 [AZD5991] + C[C@@H]1COCCN1C2=NC(=NC(=C2)C3(CC3)[S@](=N)(=O)C)C4=C5C=CNC5=NC=C4 [AZD6738] (first compound max 1 µM, 7x7, partner max 10 µM) | 0.79 | 0.923 | 0.755 | 0.501 | 1 | 0.671 | 0.771 | 0.495 | 0.193 | 0.859 | 0.673 | 0.567 | 0.961 | 0.531 | 0.601 | 0.252 | 0.518 | 0.49 | 0.389 | 0.874 |
| Cn1cnc2c(F)c(Nc3ccc(Br)cc3Cl)c(C(=O)NOCCO)cc21 [Selumetinib] + C=CCn1c(=O)c2cnc(Nc3ccc(N4CCN(C)CC4)cc3)nc2n1-c1cccc(C(C)(C)O)n1 [AZD1775] (first compound max 10 µM, partner max 1 µM) | 0.637 | 0.93 | 0.452 | 0.6 | 0.791 | 0.666 | 0.563 | 0.439 | 0.145 | 0.828 | 0.747 | 0.626 | 0.381 | 0.43 | 0.902 | 0.607 | 0.557 | 0.463 | 0.296 | 0.748 |
| C=CCn1c(=O)c2cnc(Nc3ccc(N4CCN(C)CC4)cc3)nc2n1-c1cccc(C(C)(C)O)n1 [AZD1775] + C1CN(CCC1(C(=O)N[C@@H](CCO)C2=CC=C(C=C2)Cl)N)C3=NC=NC4=C3C=CN4 [Capivasertib] (first compound max 3 µM, partner max 3 µM) | 0.563 | 0.996 | 0.505 | 0.787 | 0.91 | 0.703 | 0.702 | 0.561 | 0.45 | 0.631 | 0.763 | 0.695 | 0.711 | 0.626 | 0.947 | 0.455 | 0.681 | 0.702 | 0.413 | 0.948 |
| CC(=O)c1c(C)c2cnc(Nc3ccc(N4CCNCC4)cn3)nc2n(C2CCCC2)c1=O [Palbociclib] + CC1(C)CCC(CN2CCN(c3ccc(C(=O)NS(=O)(=O)c4ccc(NCC5CCOCC5)c([N+](=O)[O-])c4)c(Oc4cnc5[nH]ccc5c4)c3)CC2)=C(c2ccc(Cl)cc2)C1 [Venetoclax] (first compound max 10 µM, 7x7, partner max 1 µM) | 0.353 | 0.354 | 0.0364 | 0.383 | 0.538 | 0.331 | 0.328 | 0.143 | 0.176 | 0.431 | 0.559 | 0.0774 | 0.465 | 0.251 | 0.318 | 0.057 | 0.0941 | 0.152 | 0.0755 | 0.106 |
| CN(CCO)CC[C@H](CSc1ccccc1)Nc1ccc(S(=O)(=O)NC(=O)c2ccc(N3CCC([C@@H](O)c4ccccc4-c4ccc(Cl)cc4)CC3)cc2)cc1S(=O)(=O)C(F)(F)F [AZD4320] + Cn1cnc2c(F)c(Nc3ccc(Br)cc3Cl)c(C(=O)NOCCO)cc21 [Selumetinib] (first compound max 1 µM, 7x7, partner max 3 µM) | 0.591 | 0.531 | 0.775 | 0.254 | 0.468 | 0.959 | 0.951 | 0.666 | 0.204 | 0.852 | 0.594 | 0.563 | 0.995 | 0.423 | 0.422 | 0.838 | 0.379 | 0.422 | 0.744 | 0.955 |
| NC1(C(=O)N[C@@H](CCO)c2ccc(Cl)cc2)CCN(c2ncnc3[nH]ccc23)CC1 [Capivasertib] + C[C@@H]1COCCN1C2=NC(=NC(=C2)C3(CC3)[S@](=N)(=O)C)C4=C5C=CNC5=NC=C4 [AZD6738] (first compound max 10 µM, 7x7, partner max 10 µM) | 0.579 | 0.946 | 0.558 | 0.597 | 0.85 | 0.435 | 0.7 | 0.435 | 0.358 | 0.681 | 0.746 | 0.461 | 0.872 | 0.524 | 0.603 | 0.389 | 0.429 | 0.647 | 0.324 | 0.894 |
| CC1(C)CCC(CN2CCN(c3ccc(C(=O)NS(=O)(=O)c4ccc(NCC5CCOCC5)c([N+](=O)[O-])c4)c(Oc4cnc5[nH]ccc5c4)c3)CC2)=C(c2ccc(Cl)cc2)C1 [Venetoclax] + C[C@@H](Nc1cc(F)cc(F)c1)c1cc(C(=O)N(C)C)cc2c(=O)cc(N3CCOCC3)oc12 [AZD8186] (first compound max 1 µM, 7x7, partner max 3 µM) | 0.345 | 0.154 | 0.614 | 0.421 | 0.455 | 0.617 | 0.157 | 0.164 | 0.0928 | 0.272 | 0.0835 | 0.241 | 0.403 | 0.253 | 0.0963 | 0.121 | 0.245 | 0.125 | 0.0865 | 0.835 |
